# Data taken from patent US6197982A, “Vitamin D analogues” (priority 1996, dated 2001).
# “Also recorded” adds a separate entry of the source. Read-outs that look alike come from different tables or passages of the source.
# Assays:
# [1] = tested on: receptor; conditions: relative to 1,25(OH)2 D3; cited from earlier work
# [2] = tested on: HL-60 cancer cells; conditions: relative to 1,25(OH)2 D3; cited from earlier work
# [3] = tested on: mouse spleen lymphocytes; experiment: mixed lymphocyte reaction (MLR), 3H-thymidine incorporation; type: cell-based, mouse (BALB/c and CB6F1); conditions: for immunosuppressive activity (MLR), in words: also in comparison with prior art reference compounds; for MLR rel. (ratio between the IC50 value of 1,25(OH)2 D3 and the IC50 value of the compound): relative to 1,25(OH)2 D3, 72 hours, >1 = more active
# Method: The mixed cultures of lymphocytes are incubated with the test compounds for 72 hours. Cellular DNA-synthesis is assessed by the incorporation of ^3 H-thymidine in the D
# (§1) .sunburst. The values are relative to 1,25 (OH)2 D3; a value
# (§2) H-thymidine incorporation compared to controls.
# [4] = tested on: HaCaT, human skin keratinocyte cell line; experiment: HaCaT antiproliferative assay, 3H-thymidine uptake; type: cell-based; conditions: for inhibition at 0.1 µM: Homo sapiens, HaCaT, read-out: HaCaT, max. % (maximal inhibition of the cell proliferation); for inhibition at 0.1 µM / maximal inhibition in HaCaT, in words: at 10^-7 M; for maximal inhibition in HaCaT, in words / potency in the HaCaT-assay (psoriasis model), in words: compared with 1,25(OH)2 D3; for HaCaT rel. (ratio between the IC50 value of 1,25(OH)2 D3 and the IC50 value of the compound): relative to 1,25(OH)2 D3, 3H-thymidine incorporation, >1 = more active
# From the text: as §1, §2
# .cndot. "HaCaT, max %" indicates the maximal inhibition of the cell
# proliferation (maximal efficacy) which is obtainable at the higher
# concentration of 10^-7 M of a compound.
# [5] = calcemic activity in rats in vivo; set-up: species or system rat; key to Calc. rel. (calcemic activity relative to 1,25(OH)2 D3): calcemic activity relative to 1,25(OH)2D3 (=1); conditions: for calcemic activity, in words: compared with 1,25(OH)2 D3; for Calc. rel. (calcemic activity relative to 1,25(OH)2 D3): rats in vivo, low values preferred
# Method: The calcemic activity of the compounds was determined in rats in vivo, as previously described. In table 1, column "Calc., rel.", the calcemic activities of selected compounds (relative to 1,25(OH)2 D3) are listed; as mentioned, low values for the compounds of the present invention are ordinarily preferred.
# as §1
# [6] = tested on: breast cancer cells; conditions: cited from earlier work
# [7] = tested on: breast cancer cells; conditions: in vitro; cited from earlier work
# [8] = tested on: type I diabetes, non-obese diabetic (NOD) mouse; conditions: cited from earlier work
# [9] = tested on: autoimmune disease recurrence in NOD mice; conditions: cited from earlier work
# [10] = tested on: transcriptional activity; conditions: compared to 1,25(OH)2 D3; cited from earlier work
# [11] = tested on: skin allograft; conditions: mice; cited from earlier work
# [12] = tested on: angiogenesis; conditions: cited from earlier work
# [13] = tested on: calcium metabolism; conditions: cited from earlier work; for activity on calcium metabolism: in vivo
# [14] = tested on: B-lymphocytes; conditions: in vitro; cited from earlier work
# [15] = tested on: immune functions; conditions: in vivo; cited from earlier work
# [16] = tested on: regulatory/suppressor T-lymphocytes; conditions: cited from earlier work
# [17] = tested on: activated T-lymphocytes; conditions: cited from earlier work
# [18] = tested on: Cytotoxic T-cells; conditions: cited from earlier work
# [19] = tested on: monocytes/macrophages; conditions: cited from earlier work
# [20] = tested on: cells; conditions: cited from earlier work
# [21] = tested on: graft rejection; conditions: cited from earlier work
# [22] = in vivo; cited from earlier work
# [23] = tested on: psoriasis; conditions: cited from earlier work
smiles,measurement,setting,value
"C=C1/C(=C\C=C2/CCC[C@]3(C)[C@@H]([C@H](C)[C@H](CCC(C)(C)O)OC)CC[C@@H]23)C[C@@H](O)C[C@@H]1O [22S-methoxy-1,25(OH)2 D3]","receptor binding affinity, times that of 1,25(OH)2 D3",[1],0.03 times
same,"potency in inducing differentiation of HL-60 cancer cells, times that of 1,25(OH)2 D3",[2],0.25 times
"C=C1/C(=C\C=C2/CCC[C@]3(C)[C@@H]([C@@H](C)C(CCC(C)(C)O)OCC)CC[C@@H]23)C[C@@H](O)C[C@@H]1O (single isomer, unassigned) [Compound 102]","immunosuppressive activity (MLR), in words",[3],potent effects
same,"MLR rel. (ratio between the IC50 value of 1,25(OH)2 D3 and the IC50 value of the compound)",[3],161
same,inhibition at 0.1 µM,[4],85%
same,"maximal inhibition in HaCaT, in words",[4],"the same, or higher, maximal inhibition at 10^-7 M as 1,25(OH)2 D3"
same,"potency in the HaCaT-assay (psoriasis model), in words",[4],"considerably more potent than 1,25(OH)2 D3"
same,"HaCaT rel. (ratio between the IC50 value of 1,25(OH)2 D3 and the IC50 value of the compound)",[4],137
same,"calcemic activity, in words",[5],"only about half as large as that of 1,25(OH)2 D3"
same,"Calc. rel. (calcemic activity relative to 1,25(OH)2 D3)",[5],0.50
C=C1/C(=C\C=C2/CCC[C@]3(C)[C@@H]([C@H](C)/C=C/C=C/C(O)(CC)CC)CC[C@@H]23)C[C@@H](O)C[C@@H]1O [EB 1089],growth of breast cancer cells,[6],inhibits the growth of breast cancer cells in vitro and in vivo
same,selectivity between the anti-cancer and the calcemic effects,[6]; in vivo,definite selectivity between the anti-cancer and the calcemic effects in vivo
same,growth of breast cancer cells,[7],inhibits the growth of breast cancer cells in vitro
"C=C1/C(=C\C=C2/CCC[C@]3(C)[C@@H]([C@@H](C)OCCCC(O)(CC)CC)CC[C@@H]23)C[C@@H](O)C[C@@H]1O [KH 1060, 20-epi-22-oxa-25,26,27-trihomo-1,25-(OH)2 D3]",effect on calcium and bone,[8],only slight
same,immunoregulation in type I diabetes,[8],effective immunoregulator
same,toxicity,[9],toxic in the most effective high doses
same,delaying autoimmune disease recurrence,[9]; islet transplantation,very effective in delaying autoimmune disease recurrence
same,transcriptional activity,[10],enhanced transcriptional activity
same,hypercalcemia / serum calcium,[11],"induced hypercalcemia in the highest, and most effective, dose"
same,skin allograft survival / immunosuppression,[11],prolonged skin allograft survival in mice; also recorded: most potent immunosuppressor
"C=C1/C(=C\C=C2/CCC[C@]3(C)[C@@H]([C@H](C)CCCC(C)(C)O)CC[C@@H]23)C[C@@H](O)C[C@@H]1O [1,25(OH)2 D3, 1α,25-dihydroxy-vitamin D3]","MLR rel. (ratio between the IC50 value of 1,25(OH)2 D3 and the IC50 value of the compound)",[3],1
same,angiogenesis,[12],inhibition of angiogenesis
same,hypercalcemia,"[13]; high doses necessary for therapeutic effect on e.g. psoriasis, cancer, immunological disorders",serious side effects due to hypercalcemia
same,formation of antibodies (IgM and IgG) from B-lymphocytes,[14],indirect inhibition of the formation of antibodies (IgM and IgG)
same,immune functions in vitamin D deficiency states,[15],restores normal immune functions in vitamin D deficiency states in vivo
same,regulatory/suppressor T-lymphocytes,[16],stimulated
same,inhibition at 0.1 µM,[4],85%
same,"HaCaT rel. (ratio between the IC50 value of 1,25(OH)2 D3 and the IC50 value of the compound)",[4],1
same,cytokines IL-2 and INF-γ,[17],down-regulation of cytokines IL-2 and INF-γ
same,proliferation of activated T-lymphocytes,[17],inhibited
same,cytotoxic T-cells,[18],inhibited
same,production/release of cytokines such as IL-1 and TNF,[19]; antigen-stimulated monocytes/macrophages,downregulation
same,antibacterial activity of monocytes/macrophages,[19],enhances their antibacterial activity
same,differentiation of monocytes towards macrophages,[19],stimulates the differentiation of monocytes towards macrophages
same,immunoregulation in type I diabetes,[8],effective immunomodulator
same,differentiation of cells,[20],stimulate the differentiation of cells
same,excessive cell proliferation,[20],inhibit excessive cell proliferation
same,"Calc. rel. (calcemic activity relative to 1,25(OH)2 D3)",[5],1
C=C1/C(=C\C=C2/CCC[C@]3(C)[C@@H]([C@@H](C)C(O)C#CC(O)(CC)CC)CC[C@@H]23)C[C@@H](O)C[C@@H]1O (some centres unmarked) [GS1535],"MLR rel. (ratio between the IC50 value of 1,25(OH)2 D3 and the IC50 value of the compound)",[3],13
same,inhibition at 0.1 µM,[4],82%
same,"HaCaT rel. (ratio between the IC50 value of 1,25(OH)2 D3 and the IC50 value of the compound)",[4],313
same,"Calc. rel. (calcemic activity relative to 1,25(OH)2 D3)",[5],8.2
"C=C1/C(=C\C=C2/CCC[C@]3(C)[C@@H]([C@@H](C)CCCC(C)(C)O)CC[C@@H]23)C[C@@H](O)C[C@@H]1O [MC1288, 20-epi-1,25(OH)2 D3]","MLR rel. (ratio between the IC50 value of 1,25(OH)2 D3 and the IC50 value of the compound)",[3],150
same,inhibition at 0.1 µM,[4],76%
same,"HaCaT rel. (ratio between the IC50 value of 1,25(OH)2 D3 and the IC50 value of the compound)",[4],43
same,immunosuppression / prevention of graft rejection,[21]; rat heart and small bowel transplantation,"effective as an immunosuppressant in a rat model of heart and small bowel transplantations, preventing graft rejection; also recorded: valuable immunosuppressive activity in animal transplantation experiments"
same,serum calcium level,[21]; rat transplantation model,moderately increased
same,transcriptional activity,[10],enhanced transcriptional activity
same,hypercalcemia / serum calcium,[11],less hypercalcemic than KH 1060
same,skin allograft survival / immunosuppression,[11],very effective
same,"Calc. rel. (calcemic activity relative to 1,25(OH)2 D3)",[5],2.5
C=C1/C(=C\C=C2/CCC[C@]3(C)[C@@H]([C@@H](C)C(C#CC(O)(CC)CC)OCC)CC[C@@H]23)C[C@@H](O)C[C@@H]1O (some centres unmarked) [GS1720],"MLR rel. (ratio between the IC50 value of 1,25(OH)2 D3 and the IC50 value of the compound)",[3],36
same,inhibition at 0.1 µM,[4],70%
same,"HaCaT rel. (ratio between the IC50 value of 1,25(OH)2 D3 and the IC50 value of the compound)",[4],3.9
same,"Calc. rel. (calcemic activity relative to 1,25(OH)2 D3)",[5],1.2
C=C1/C(=C\C=C2/CCC[C@]3(C)[C@@H]([C@@H](C)C(O)CCC(C)(C)O)CC[C@@H]23)C[C@@H](O)C[C@@H]1O (some centres unmarked) [CB1297],"MLR rel. (ratio between the IC50 value of 1,25(OH)2 D3 and the IC50 value of the compound)",[3],12
same,inhibition at 0.1 µM,[4],75%
same,"HaCaT rel. (ratio between the IC50 value of 1,25(OH)2 D3 and the IC50 value of the compound)",[4],45
C=C1/C(=C\C=C2/CCC[C@]3(C)[C@@H]([C@@H](C)C(C#CC(O)(CC)CC)OC)CC[C@@H]23)C[C@@H](O)C[C@@H]1O (some centres unmarked) [GS1725],"MLR rel. (ratio between the IC50 value of 1,25(OH)2 D3 and the IC50 value of the compound)",[3],150
same,inhibition at 0.1 µM,[4],96%
same,"HaCaT rel. (ratio between the IC50 value of 1,25(OH)2 D3 and the IC50 value of the compound)",[4],4.4
same,"Calc. rel. (calcemic activity relative to 1,25(OH)2 D3)",[5],12
C=C1/C(=C\C=C2/CCC[C@]3(C)[C@@H]([C@H](C)/C=C/[C@@H](O)C4CC4)CC[C@@H]23)C[C@@H](O)C[C@@H]1O [MC903],"MLR rel. (ratio between the IC50 value of 1,25(OH)2 D3 and the IC50 value of the compound)",[3],0.6
same,activity on calcium metabolism,[13],only moderate activity on calcium metabolism in vivo
same,activity on calcium metabolism,[13]; listed as Calcipotriol,low in vivo activity on calcium metabolism
same,inhibition at 0.1 µM,[4],78%
same,"HaCaT rel. (ratio between the IC50 value of 1,25(OH)2 D3 and the IC50 value of the compound)",[4],1.8
same,metabolism,[22],rapid metabolism
same,hypercalcemia in patients,[23]; psoriasis patients,without hypercalcemia
same,"improvement, % of the patients","[23]; without hypercalcemia, psoriasis",70-80%
same,"Calc. rel. (calcemic activity relative to 1,25(OH)2 D3)",[5],0.005
"C=C1/C(=C\C=C2/CCC[C@]3(C)[C@@H]([C@@H](C)C(CCC(C)(C)O)OC)CC[C@@H]23)C[C@@H](O)C[C@@H]1O (single isomer, unassigned) [Compound 101]","immunosuppressive activity (MLR), in words",[3],potent effects
same,"MLR rel. (ratio between the IC50 value of 1,25(OH)2 D3 and the IC50 value of the compound)",[3],175
same,inhibition at 0.1 µM,[4],92%
same,"maximal inhibition in HaCaT, in words",[4],"the same, or higher, maximal inhibition at 10^-7 M as 1,25(OH)2 D3"
same,"potency in the HaCaT-assay (psoriasis model), in words",[4],"considerably more potent than 1,25(OH)2 D3"
same,"HaCaT rel. (ratio between the IC50 value of 1,25(OH)2 D3 and the IC50 value of the compound)",[4],28
same,"calcemic activity, in words",[5],"only about half as large as that of 1,25(OH)2 D3"
same,"Calc. rel. (calcemic activity relative to 1,25(OH)2 D3)",[5],0.45
C=C1/C(=C\C=C2/CCC[C@]3(C)[C@@H]([C@H](C)CCCCC(O)(CC)CC)CC[C@@H]23)C[C@@H](O)C[C@@H]1O [CB 966],skin allograft survival / immunosuppression,[11],prolonged skin allograft survival in mice
